≈ marks a conversion by molar mass, not a printed value. Where two headings read alike, the source gives them in different places.
Assays:
[1] = tested on: 20 different MSSA and 42 MRSA strains; assay: Time-kill assay, single agents at 1×MIC; type: cell-based, Staphylococcus aureus; conditions: 1×MIC; for comparative kill: up to 6 hours
Experimental: In order to more fully evaluate PlySs2's applicability to clinical Staphylococcal infections, time kill studies were undertaken against numerous Staphylococcus aureus strains, including methicillin resistant and methicillin sensitive strains. Time kill assays were performed according to CLSI methodology (CLSI document M07-A9 column 32 No. 2) on 42 methicillin resistant S. aureus (MRSA) strains and 20 methicillin sensitive S. aureus (MSSA) strains. Cultures of each strain (5.5×10^5-1×10^6 starting inoculum) were treated with PlySs2 lysin and with antibiotics daptomycin, oxacillin or vancomycin for comparison for 6 hours with aeration. MRSA and MSSA strains were treated with PlySs2, daptomycin and vancomycin. MSSA strains were also treated with oxacillin. 1×MIC concentrations of the different antibiotics were utilized, based on published and established antibiotic MIC values. PlySs2 lysin treatment was at approximately 1×MIC as previously determined (see TABLE 2 above). Culture aliquots were removed hourly up to 6 hours (time points taken at 15 and 30 min, 1 hr, 2 hr, 3 hr, 4 hr, 5 hr, and 6 hr) and added to a PBS/charcoal solution (to inactivate each drug), which was then serially diluted and plated for bacterial viability. The resulting log CFU/mL was plotted for each culture. Growth controls were included for each strain and represent bacterial growth in the absence of any antibacterial agent. Exemplary log kill curves for selected MRSA strains are depicted in FIG. 1. Exemplary log kill curves for selected MSSA strains are depicted in FIG. 2.
Rapid-kill kinetics are desirable in the clinical setting to treat patients with fulminant bacterial infections.

[2] = tested on: MRSA Staphylococcus aureus strain (MW2); assay: microbe, parasite or virus in culture; type: cell-based
[3] = tested on: MRSA strain MW2 (also strains 738, 832); type: in vivo, BALB/c mice; conditions: FIG. 27E; 10^9 CFU, dosing at 2 hours; vancomycin 110 mg/kg twice daily, PlySs2 5.25 mg/kg
S. aureus cell envelope = assay: BODIPY-labeled antibiotic cell envelope binding time course; type: cell-based
From the text: As a complement to the synergy studies, daptomycin and vancomycin cell envelope-binding was examined using BODIPY-fluorescein-labeled antibiotics in the presence and absence of sub-MIC levels of CF-301.

MRSA strains = assay: Time kill assay, PlySs2 and antibiotic alone or in combination; type: cell-based, Staphylococcus aureus; conditions: ½ MIC of PlySs2 or ¼ MIC of vancomycin alone
MRSA S. aureus strains = assay: Dual agent MIC assay (PlySs2 and daptomycin); type: cell-based, Staphylococcus aureus
[4] = tested on: MRSA strain MW2 and MSSA strain ATCC 29213; type: cell-based, Staphylococcus aureus
MRSA strain 269 (MW2) = assay: Combination MIC in 15% surfactant (Survanta); type: cell-based, Staphylococcus aureus

| Structure (SMILES) | comparative kill [1] | fold increase in vancomycin MIC ([2]; 25-day, vancomycin-only) [fold] | vancomycin MIC, ending values ([2]; 25 day serial passage, PlySs2 (8 ug/ml) plus vancomycin (three cultures)) [µg/mL] | MIC ([2]; Staphylococcus aureus, MRSA, read-out: vancomycin MIC, starting value, MW2) [µg/mL] | 24 hour survival rate [3] [%] | 72 hour survival rate [3] [%] | time to cell wall-labeling with BODIPY-labeled vancomycin (S. aureus cell envelope; in the presence of CF-301 (⅛^th MIC)) [min] | time to cell wall-labeling with BODIPY-labeled vancomycin (S. aureus cell envelope; without CF-301) [min] | effect alone at sub-MIC doses up to 6 hours (MRSA strains) | time to reach bactericidal levels (≧3-log10 reduction in CFUs) [1] [hours] | MIC alone (MRSA S. aureus strains; MRSA strain 269 (MW2), single-agent) [µg/mL] | daptomycin MIC with 0.25×MIC PlySs2 (MRSA S. aureus strains; dual agent MIC assay, strain not named) [µg/mL] | time to antibiotic penetration (BODIPY-labeled daptomycin binding) (S. aureus cell envelope; in the presence of CF-301 at 1/32nd MIC) [min] | time to antibiotic penetration (BODIPY-labeled daptomycin binding) (S. aureus cell envelope; without CF-301) [min] | fold inhibition of MIC in the presence of Survanta ([4]; surfactant concentration of 1.25%) | fold inhibition of MIC in the presence of Survanta ([4]; surfactant up to 15%, vs MIC without surfactant) | effective combination concentration as fraction of the MIC (MRSA strain 269 (MW2)) | effective concentration in PlySs2 plus daptomycin combination MIC (MRSA strain 269 (MW2); 24 hours) [µg/mL] |
| --- | --- | --- | --- | --- | --- | --- | --- | --- | --- | --- | --- | --- | --- | --- | --- | --- | --- | --- |
| Cc1onc(-c2ccccc2)c1C(=O)N[C@@H]1C(=O)N2[C@@H]1SC(C)(C)[C@@H]2C(=O)O [Oxacillin, oxacillin, reference compound] | least effective | – | – | – | – | – | – | – | – | – | – | – | – | – | – | – | – | – |
| CN[C@H](CC(C)C)C(=O)N[C@H]1C(=O)N[C@@H](CC(N)=O)C(=O)N[C@H]2C(=O)N[C@H]3C(=O)N[C@H](C(=O)N[C@H](C(=O)O)c4cc(O)cc(O)c4-c4cc3ccc4O)[C@H](O)c3ccc(c(Cl)c3)Oc3cc2cc(c3O[C@@H]2O[C@H](CO)[C@@H](O)[C@H](O)[C@H]2O[C@H]2C[C@](C)(N)[C@H](O)[C@H](C)O2)Oc2ccc(cc2Cl)[C@H]1O [Vancomycin, vancomycin] | – | 16 | 2 | 1 (≈ 0.69 µM) | 20 | 3 | ≤ 5 | 30 | ineffective or poorly effective | – | – | – | – | – | – | – | – | – |
| CCCCCCCCCC(=O)N[C@@H](Cc1c[nH]c2ccccc12)C(=O)N[C@H](CC(N)=O)C(=O)N[C@@H](CC(=O)O)C(=O)N[C@@H]1C(=O)NCC(=O)N[C@@H](CCCN)C(=O)N[C@@H](CC(=O)O)C(=O)N[C@H](C)C(=O)N[C@@H](CC(=O)O)C(=O)NCC(=O)N[C@H](CO)C(=O)N[C@@H]([C@H](C)CC(=O)O)C(=O)N[C@@H](CC(=O)c2ccccc2N)C(=O)O[C@@H]1C [Daptomycin, reference compound] | most effective against most strains | – | – | – | – | – | – | – | – | 6 | 1 (≈ 0.617 µM) | 0.0075 | 15 | 180 | more than 20 fold | up to 256 fold | 1/1024 | 0.25 |
